Reference: US20260258025A1, “INHIBITORS OF TDP-43 AND TAU AGGREGATION” (Aquinnah Pharmaceuticals, inc., priority 2023, published 2026)

These compounds were tested on TDP-43 aggregation (assay: TDP-43 aggregation assay in SY5Y TDP-43WT cells (high content imaging)). Conditions: Homo sapiens, tetracycline induction 24 hrs, 1 hour compound pre-treatment, sodium arsenite 23 hrs, 8-point dose curve, percentage of cells with TDP-43 aggregates, read-out: IC50, Inhibition of TDP-43 Aggregation.
Assay type: cell-based
Method in brief: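 Tetracycline-inducible eGFP-tagged wild-type human TDP-43 in SH-SY5Y cells, induced 24 h ([…]), compound pre-treated 1 h, then sodium arsenite […] for 23 h. Fixed cells imaged; percentage of DAPI-counted cells with aggregates gives IC50 from 8-point curves.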
`Cc1cc(-c2ccc(C3CCN(C4CCC4)CC3)c(F)c2)sc1C(=O)N1CC[C@H](N)C1` [Compound 279, (S)-(3-aminopyrrolidin-1-yl)(5-(4-(1-cyclobutylpiperidin-4-yl)-3-fluorophenyl)-3-methylthiophen-2-yl)methanone] was tested, and the IC50 was < 500 nM.
`CN1CCC(c2ccc(-c3cc(Cl)c(C(=O)N4CC[C@H](N)C4)s3)cc2F)CC1` [Compound 280, (S)-(3-aminopyrrolidin-1-yl)(3-chloro-5-(3-fluoro-4-(1-methylpiperidin-4-yl)phenyl)thiophen-2-yl)methanone] was tested, and the IC50 was < 500 nM.
In the case of `CCN1CCC(c2ccc(-c3cc(C)c(C(=O)N4CC[C@H](N)C4)s3)cc2F)CC1` [Compound 281, (S)-(3-aminopyrrolidin-1-yl)(5-(4-(1-ethylpiperidin-4-yl)-3-fluorophenyl)-3-methylthiophen-2-yl)methanone], the IC50 is reported as < 500 nM.
With `Cc1cc(-c2ccc(C3CCN(C(C)C)CC3)c(F)c2)sc1C(=O)N1CC[C@H](N)C1` [Compound 282, (S)-(3-aminopyrrolidin-1-yl)(5-(3-fluoro-4-(1-isopropylpiperidin-4-yl)phenyl)-3-methylthiophen-2-yl)methanone] the IC50 was < 500 nM.
In the case of `COCCN1CCC(c2ccc(-c3cc(Cl)c(C(=O)N4CC[C@H](N)C4)s3)cc2F)CC1` [Compound 283, (S)-(3-aminopyrrolidin-1-yl)(3-chloro-5-(3-fluoro-4-(1-(2-methoxyethyl)piperidin-4-yl)phenyl)thiophen-2-yl)methanone], the IC50 is reported as < 500 nM.
`CC(C)N1CCC(c2ccc(-c3cc(Cl)c(C(=O)N4CC[C@H](N)C4)s3)cc2F)CC1` [Compound 284, (S)-(3-aminopyrrolidin-1-yl)(3-chloro-5-(3-fluoro-4-(1-isopropylpiperidin-4-yl)phenyl)thiophen-2-yl)methanone] was tested, and the IC50 was < 500 nM.
With `CCCc1cc(-c2ccc(C3CCN(C4CCOCC4)CC3)cc2)sc1C(=O)N1CC[C@H](N)C1` [Compound 285, (S)-(3-aminopyrrolidin-1-yl)(3-propyl-5-(4-(1-(tetrahydro-2H-pyran-4-yl)piperidin-4-yl)phenyl)thiophen-2-yl)methanone] the IC50 was 1000 to 2000 nM.
For `C=CCc1cc(-c2ccc(C3CCN(C4CCOCC4)CC3)cc2)sc1C(=O)N1CC[C@H](N)C1` [Compound 286], the IC50 was < 500 nM.
With `Cc1cc(-c2ccc(C3CCN(C4CCOCC4)CC3)c(Cl)c2)sc1C(=O)N1CC[C@H](N)C1` [Compound 287, (S)-(3-aminopyrrolidin-1-yl)(5-(3-chloro-4-(1-(tetrahydro-2H-pyran-4-yl)piperidin-4-yl)phenyl)-3-methylthiophen-2-yl)methanone] the IC50 was < 500 nM.
With `C#CCOCCN1CCC(c2ccc(-c3cc(C)c(C(=O)N4CC[C@H](N)C4)s3)cc2)CC1` [Compound 288, (S)-(3-amino-pyrrolidin-1-yl)(3-methyl-5-(4-(1-(2-(prop-2-yn-1-yloxy)ethyl)piperidin-4-yl)phenyl)thiophen-2-yl) methanone] the IC50 was < 500 nM.
With `CCc1cc(-c2ccc(C3CCN(C4CCOCC4)CC3)cc2)sc1C(=O)N1CC[C@H](N)C1` [Compound 289, (S)-(3-aminopyrrolidin-1-yl)(3-ethyl-5-(4-(1-(tetrahydro-2H-pyran-4-yl)piperidin-4-yl)phenyl)thiophen-2-yl)methanone] the IC50 was < 500 nM.
`C#CCOCCOCCN1CCC(c2ccc(-c3cc(C)c(C(=O)N4CC[C@H](N)C4)s3)cc2)CC1` [Compound 290, (S)-(3-aminopyrrolidin-1-yl)(3-methyl-5-(4-(1-(2-(2-(prop-2-yn-1-yloxy)ethoxy)ethyl)piperidin-4-yl)phenyl)thiophen-2-yl)methanone] was tested, and the IC50 was < 500 nM.
`CCc1cc(-c2ccc(C3CCN(C4CCOCC4)CC3)c(F)c2)sc1C(=O)N1CC[C@H](N)C1` [Compound 291, (S)-(3-aminopyrrolidin-1-yl)(3-ethyl-5-(3-fluoro-4-(1-(tetrahydro-2H-pyran-4-yl)piperidin-4-yl)phenyl)thiophen-2-yl)methanone] was tested, and the IC50 was < 500 nM.
`COc1cc(-c2ccc(C3CCN(C4CCOCC4)CC3)c(F)c2)sc1C(=O)N1CC[C@H](N)C1` [Compound 292, (S)-(3-aminopyrrolidin-1-yl)(5-(3-fluoro-4-(1-(tetrahydro-2H-pyran-4-yl)piperidin-4-yl)phenyl)-3-methoxythiophen-2-yl)methanone] showed an IC50 of 500 to 1000 nM.
`COc1cc(-c2ccc(C3CCN(C4CCOCC4)CC3)cc2)sc1C(=O)N1CC[C@H](N)C1` [Compound 293] was tested, and the IC50 was 500 to 1000 nM.
For `N[C@H]1CCN(C(=O)c2sc(-c3ccc(C4CCN(C5CCOCC5)CC4)cc3)cc2Cl)C1` [Compound 294, (S)-(3-aminopyrrolidin-1-yl)(3-chloro-5-(4-(1-(tetrahydro-2H-pyran-4-yl)piperidin-4-yl)phenyl)thiophen-2-yl)methanone], the IC50 was < 500 nM.
In the case of `N[C@H]1CCN(C(=O)c2sc(-c3ccc(C4CCN(C5CCOCC5)CC4)c(F)c3)cc2Cl)C1` [Compound 295, (S)-(3-aminopyrrolidin-1-yl)(3-chloro-5-(3-fluoro-4-(1-(tetrahydro-2H-pyran-4-yl)piperidin-4-yl)phenyl)thiophen-2-yl)methanone], the IC50 is reported as < 500 nM.
In the case of `Cc1cc(-c2ccc(C3CCN(C4CCOCC4)CC3)c(F)c2)sc1C(=O)N1CC[C@H](N)C1` [Compound 296, (S)-(3-aminopyrrolidin-1-yl)(5-(3-fluoro-4-(1-(tetrahydro-2H-pyran-4-yl)piperidin-4-yl)phenyl)-3-methylthiophen-2-yl)methanone], the IC50 is reported as < 500 nM.

What follows are compounds tested on tau stress granules (assay: SY5Y-tT1 tau arsenite assay (tau stress granules per cell)). Conditions: SY5Y-tT1 cells, 2 hours compound, 90 minutes arsenite, 50% reduction of granules per cell, read-out: IC50, Inhibitor Activity of Tau Stress Granules.
Assay type: cell-based
Protocol: Example 91: In Vitro Efficacy Assay of Exemplary Compounds—SY5Y-tT1 Tau Arsenite/Thapsigargin Assay
• Before harvesting cells—checked to see if cells are ~80% confluency in their flask • 1. Aspirated growth media from flask. • 2. Added 4 mL of (0.25%) trypsin-EDTA (REF: 25200-056) • 3. Placed in 37° C. incubator for 5 minutes. • 4. Removed from incubator and added 11 mL growth media, washing any remaining cells adhered to the bottom of the flask. • 5. Transferred cell containing media to a 50 mL conical tube and spun for 5 minutes at 800 rpm. • 6. Aspirated supernatant and added 5 mL of growth media to cell pellet, triturating to make a homogenous cell solution. • 7. After counting cells, followed one of these plating paradigms: • (A) If treating with arsenite, plated cells at […] with tetracycline solution (5 mg/mL) added to cell solution at 1:5000 • (B) If treating with thapsigargin, plated cells at 4,000 cells/well with tetracycline solution (5 mg/mL) added to cell solution at 1:5000 • 8. Incubated at 37° C. for 48 hours.
• Solubilized all compounds to 10 mM prior to making dilution plates • 1. To a 96-well U-bottom plate (Falcon Non-Tissue Culture Treated Plates REF: 351177) added 120 μL growth media to all 96 wells, with an additional 58.2 μL to row A. • 2. Added 1.8 μL of 10 mM compound stock to wells A1-11, adding 1.8 μL of 10 mM PERKi stock (Selleck Chemistry GSK2606414 Cat No. S7307) as the control. • 3. Serially diluted 60 μL from row A down through each row, finishing with 180 μL total volume in row H. • 4. Transferred 12.5 μL of each dilution plate well to the correlating wells in cell plate, being careful not to touch cells adhered to bottom of the plate. • 5. Incubated for 2 hours.
• 1. Added 720 μL of 0.05 M sodium arsenite solution (CAS #: 7784-46-5) to 10 mL of growth media for a final concentration of […] arsenite solution, mix well. • 2. Added 12.5 μL of arsenite solution to all wells of compounds treated plate intended for arsenite treatment. • 3. Incubated at 37° C. for 90 minutes.
• Before beginning this part of the protocol: • Made 1×PBS by diluting 10× stock (10×, Phosphate buffered saline, Fisher #BP399— • 4) in sterile deionized water. • Diluted paraformaldehyde (16% Paraformaldehyde solution, Electron Microscopy Sciences #15710-S) to 4% in 1×PBS. • Diluted Hoechst stain (Life Technologies #H3570) 1:10,000 in 1×PBS (1 μL Hoechst per 10 mL 1×PBS). • Both solutions were protected from light. • 1) After compound treatment, aspirated media from cell plates and gently added in 50 μL of 4% paraformaldehyde for 10 min protected from light at room temperature. • 2) Aspirated paraformaldehyde solution and gently added 50 μL of 1:10,000 Hoechst solution to each well and incubated for 10 min protected from light at room temperature. • 3) Aspirated Hoechst solution and gently added 100 μL 1×PBS. Cover the plate with aluminum film (VWR #60941-126). • 4) Stored at 4° C. or used immediately for imaging on ThermoFisher CX7 imager.
Exemplary compounds of the disclosed herein were evaluated for efficacy for inhibitor activity of tau stress granules in the arsenite assay and quantified as drug concentration providing a 50% reduction (IC50) of granules per cell is shown in Table 4.
In Table 4 below, A indicates an IC50 (μM)<0.5 μM, B indicates an IC50 (μM) 0.5 μM to <1 μM, C indicates an IC50 (μM) 1 μM to <2 μM, and D indicates an IC50 (μM) 2 μM to <6 μM.
`Cc1cc(-c2ccc(C3CCN(C)CC3)cc2OC(F)(F)F)sc1C(=O)N1CC[C@H](N)C1` [Compound 103, (S)-(3-aminopyrrolidin-1-yl)(3-methyl-5-(4-(1-methylpiperidin-4-yl)-2-(trifluoromethoxy)phenyl)thiophen-2-yl)methanone] was tested, and the IC50 was 2000 to 6000 nM.
With `Cc1cc(-c2ccc(C3CCN(C)CC3)cn2)sc1C(=O)N1CC[C@H](N)C1` [Compound 104, (S)-(3-aminopyrrolidin-1-yl)(3-methyl-5-(5-(1-methylpiperidin-4-yl)pyridin-2-yl)thiophen-2-yl)methanone] the IC50 was 1000 to 2000 nM.
`Cc1cc(-c2ccc(C3CCN(C)CC3)nc2)sc1C(=O)N1CC[C@H](N)C1` [Compound 108, (S)-(3-aminopyrrolidin-1-yl)(3-methyl-5-(6-(1-methylpiperidin-4-yl)pyridin-3-yl)thiophen-2-yl)methanone] was tested, and the IC50 was 500 to 1000 nM.
For `C=CCc1cc(-c2ccc(C3CCN(C(C)C)CC3)cc2)sc1C(=O)N1CC[C@H](N)C1` [Compound 109, (S)-(3-allyl-5-(4-(1-isopropylpiperidin-4-yl)phenyl)thiophen-2-yl)(3-aminopyrrolidin-1-yl)methanone], the IC50 was < 500 nM.
`CCCc1cc(-c2ccc(C3CCN(C(C)C)CC3)cc2)sc1C(=O)N1CC[C@H](N)C1` [Compound 110, (S)-(3-aminopyrrolidin-1-yl)(5-(4-(1-isopropylpiperidin-4-yl)phenyl)-3-propylthiophen-2-yl)methanone] was tested, and the IC50 was 1000 to 2000 nM.
`COc1cc(-c2cc(C)c(C(=O)N3CC[C@H](N)C3)s2)ccc1C1CCN(C)CC1` [Compound 111, (S)-(3-aminopyrrolidin-1-yl)(5-(3-methoxy-4-(1-methylpiperidin-4-yl)phenyl)-3-methylthiophen-2-yl)methanone] showed an IC50 of 2000 to 6000 nM.
